PubChem BioAssay (NCI)
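How tested: cells in 96-well plates exposed to compound for 48 hours at five concentrations. TGI denotes the concentration required for complete inhibition of growth.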

Legend:
Assay in all cases: NCI anticancer screen, dose series, 48 h
SK-MEL-28 melanoma = system: SK-MEL-28 melanoma
BT-549 breast = system: BT-549 breast
SF-268 CNS = system: SF-268 CNS
ACHN renal = system: ACHN renal
MDA-N = system: MDA-N
LOX IMVI melanoma = system: LOX IMVI melanoma
M14 melanoma = system: M14 melanoma
KM12 colon = system: KM12 colon
NCI-H23 lung = system: NCI-H23 lung
SW-620 colon = system: SW-620 colon
HCC-2998 colon = system: HCC-2998 colon
OVCAR-3 ovarian = system: OVCAR-3 ovarian
UACC-62 melanoma = system: UACC-62 melanoma
OVCAR-8 ovarian = system: OVCAR-8 ovarian
SF-539 CNS = system: SF-539 CNS
NCI-H522 lung = system: NCI-H522 lung
DU-145 prostate = system: DU-145 prostate
SK-OV-3 ovarian = system: SK-OV-3 ovarian
HCT-116 colon = system: HCT-116 colon
SN12C renal = system: SN12C renal

Compound | TGI (SK-MEL-28 melanoma) | TGI (BT-549 breast) | TGI (SF-268 CNS) | TGI (ACHN renal) | TGI (MDA-N) | TGI (LOX IMVI melanoma) | TGI (M14 melanoma) | TGI (KM12 colon) | TGI (NCI-H23 lung) | TGI (SW-620 colon) | TGI (HCC-2998 colon) | TGI (OVCAR-3 ovarian) | TGI (UACC-62 melanoma) | TGI (OVCAR-8 ovarian) | TGI (SF-539 CNS) | TGI (NCI-H522 lung) | TGI (DU-145 prostate) | TGI (SK-OV-3 ovarian) | TGI (HCT-116 colon) | TGI (SN12C renal)
CC[N+](CC)(CCNCC(N)=O)CC(N)=O | > 10 µM | > 10 µM | > 10 µM | > 10 µM | > 10 µM | > 10 µM | > 10 µM | > 10 µM | > 10 µM | > 10 µM | > 10 µM | > 10 µM | > 10 µM | > 10 µM | > 10 µM | > 10 µM | > 10 µM | > 10 µM | > 10 µM | > 10 µM
CNn1c(-c2ccccc2)n[nH]c1=O | > 100 µM | > 100 µM | > 100 µM | > 100 µM | > 100 µM | > 100 µM | > 100 µM | > 100 µM | > 100 µM | > 100 µM | > 100 µM | > 100 µM | > 100 µM | > 100 µM | > 100 µM | > 100 µM | > 100 µM | > 100 µM | > 100 µM | > 100 µM
Nc1nc(Cl)c(N)c(NC23CC4CC(CC(C4)C2)C3)n1 | 3.6 µM | 6.76 µM | > 20.5 µM | 4.69 µM | 3.31 µM | > 100 µM | 3.02 µM | 3.67 µM | 8.43 µM | 2.94 µM | 7.89 µM | 3.62 µM | 3.64 µM | 6.59 µM | 3.72 µM | 4.26 µM | 7.05 µM | 17.4 µM | 2.92 µM | 3.32 µM
COc1cc(C2c3cc4c(cc3OC(N3CCCC3)C2C)OCO4)cc(OC)c1O (configuration not stated) | > 100 µM | 53.2 µM | > 100 µM | > 100 µM | 6.17 µM | > 100 µM | > 51.1 µM | > 100 µM | > 82.1 µM | > 100 µM | > 94.3 µM | > 65.5 µM | > 61.6 µM | > 100 µM | 41.2 µM | 19.1 µM | > 90 µM | 62.4 µM | > 100 µM | > 83.7 µM
CCOC(=O)C1(Cc2ccc3c(c2)CCC3)Cc2cc3c(cc2C1)CCC3 | > 100 µM | > 100 µM | > 100 µM | > 100 µM | > 100 µM | 82.4 µM | 55.9 µM | > 100 µM | > 100 µM | > 100 µM | 64.4 µM | > 100 µM | > 100 µM | > 100 µM | 99.4 µM | 75.5 µM | > 100 µM | 88.2 µM | > 100 µM | > 100 µM
COc1ccc(CC2c3cc(Oc4cc(CC5c6cc(OC)c(OC)cc6CCN5C)ccc4O)c(OC)cc3CCN2C)cc1 (configuration not stated) | 15.1 µM | 13.4 µM | 17 µM | 13.5 µM | 13.7 µM | 10.7 µM | 12.1 µM | 5.33 µM | 15.4 µM | 7.29 µM | 2.64 µM | 15.1 µM | 15.6 µM | 13.4 µM | 16.8 µM | 14.1 µM | 6.34 µM | 16.5 µM | 4.6 µM | 14.8 µM
Cc1cc(C)c(S(=O)(=O)N2CCCN(S(=O)(=O)c3c(C)cc(C)cc3C)OCCCON(S(=O)(=O)c3c(C)cc(C)cc3C)CCCN(S(=O)(=O)c3c(C)cc(C)cc3C)OCCCO2)c(C)c1 | > 100 µM | > 100 µM | > 100 µM | > 100 µM | > 100 µM | > 100 µM | > 100 µM | > 100 µM | > 100 µM | > 100 µM | > 100 µM | > 100 µM | > 100 µM | > 100 µM | > 100 µM | > 100 µM | > 100 µM | > 100 µM | > 100 µM | –
CCCCCCCCCCCCCCCCCCNc1ccn(C2OC(COP(=O)(O)OCC3OC(n4cc(C)c(=O)[nH]c4=O)CC3O)C(O)C2O)c(=O)n1 (configuration not stated) | 31.3 µM | 29.9 µM | 32.4 µM | 44.4 µM | 33.1 µM | 31.9 µM | 30.7 µM | 36.4 µM | 31 µM | 28.5 µM | 32.6 µM | 39.7 µM | 33.8 µM | 31.6 µM | 31.5 µM | 30.3 µM | 35.8 µM | 31.8 µM | 30.8 µM | 33.4 µM
O=C(NCCCCCCNC(=O)c1cccc2ccccc12)Nc1cccc2ccccc12 | > 100 µM | > 100 µM | > 100 µM | > 100 µM | > 100 µM | > 100 µM | > 100 µM | > 100 µM | > 100 µM | > 100 µM | > 100 µM | > 100 µM | > 100 µM | > 100 µM | > 100 µM | > 100 µM | > 100 µM | – | > 100 µM | > 100 µM
CCN(CC)c1c(N(CC)CC)c(=O)c1=O | 41.9 µM | 35.8 µM | > 77 µM | 21.1 µM | 32.1 µM | 25.8 µM | 36.9 µM | 48.4 µM | 26.7 µM | 20.1 µM | 39.9 µM | 25.1 µM | 45.7 µM | 27.6 µM | 19 µM | 4.86 µM | 23.3 µM | > 100 µM | 20.8 µM | 24 µM
Nc1nc(N)c2[nH]c(CNc3ccc(C(=O)O)cc3)nc2n1 | > 100 µM | > 100 µM | > 100 µM | > 100 µM | > 100 µM | > 100 µM | > 100 µM | > 100 µM | > 100 µM | > 100 µM | > 100 µM | > 100 µM | > 100 µM | > 100 µM | > 100 µM | > 100 µM | > 100 µM | > 100 µM | > 100 µM | > 100 µM
O=C(CC(=O)Nc1cccc(C(=O)O)c1)Nc1cccc(C(=O)O)c1 | > 100 µM | > 100 µM | > 100 µM | > 100 µM | > 100 µM | > 100 µM | > 100 µM | > 100 µM | > 100 µM | > 100 µM | > 100 µM | > 100 µM | > 100 µM | > 100 µM | > 100 µM | > 100 µM | > 100 µM | – | > 100 µM | > 100 µM
